Measurements: patent US20250263404A1, “AMINOPYRIDINES AS ACTIVATORS OF PI3 KINASE” (UCL Business Ltd, priority 2021, published 2025)

How the values were obtained:
PI3Kα [1] = target: T1, PI3Kα (Homo sapiens, UniProt P42336); experiment: FRET membrane binding assay, PI3Kα; type: biochemical; set-up: Full-length p110α was expressed in a complex with full-length p85α (for biochemistry and HDX-MS); 6xHis followed by TEV protease site (N); made in house; host or cells: Spodoptera frugiperda Sf9 (baculovirus co-infection; plasmids OP831 and OP809); conditions: compared with pY
Protocol: Membrane binding assays were performed as previously published (Burke, J. E. et al. Proc Natl Acad Sci USA 109, 15259-15264 (2012)). Briefly, liposomes were prepared with 5% (w/v) brain PtdIns(4,5)P2, 20% brain phosphatidylserine, 35% brain phosphatidylethanolamine, 15% brain phosphatidylcholine, 10% cholesterol, 5% sphingomyelin, and 10% dansyl-phosphatidylserine (Avanti Polar Lipids). PI3Kα was used at a final concentration of 0.5 μM. Protein solutions were preincubated with 10 μM pY or compounds for 10 min before addition of liposomes. Liposomes were used at a final concentration of 50 μg/ml. The reaction mixture contained 5 μl enzyme, 2 μl compound and 3 μl liposomes, all diluted in 30 mM HEPES, 50 mM NaCl, pH 7.4. The reaction was allowed to proceed for 10 min at room temperature in 384 black-polystyrene plates (Corning #3544) on an orbital shaker at 200 rpm. FRET signals were measured using PHERAStar (BMG) with a 280 nm excitation filter with 350 nm and 520 nm emission filters to measure Dansyl-PS FRET emissions, respectively. FRET signal shown as I-I0, where I is the intensity at 520 nm, and 10 is the intensity at 520 nm for the solution in the absence of protein.

[2] = tested on: pAKT^S473 in mouse embryonic fibroblasts (MEFs); experiment: pAKT S473 by Wes western blotting in MEFs; type: cell-based
Description: The inventors next monitored the activation of AKT, the best-known PI3K effector stimulated by PIP3/PI(3,4)P2 production in cells. […] As previously reported, PI3Kα-null MEFs still respond to insulin, but now in a PI3Kβ-dependent manner, as shown by sensitivity of insulin-stimulated pAKT^S473 to the PI3Kβ-selective inhibitor TGX-221 (FIG. 3b). […] Similar observations were made for mTORC1 pathway activation, as measured by S6 (Ser240/44) and 4EBP1 (Ser65) phosphorylation (FIG. 3e). […] Experiments with A549 cells and MEFs were performed separately using slightly different protocols. Briefly, A549 cells were seeded at 200,000 cells per well in 24-well plates in DMEM (10% FBS+1% P/S) and allowed to adhere overnight. The next day, cells were washed once with PBS before addition of serum-free DMEM for 24 h. On the day of treatment, cells were incubated in fresh serum-free DMEM prior to treatment. […]

PI3Kα [3] = target: T1, PI3Kα; experiment: pAKT S473 ELISA in A549 cells (PI3Kα activation); type: cell-based; set-up: endogenous in cells; host or cells: A549; conditions: A549 cells
Summary of the method: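 A549 cells serum-starved 24 h, then treated 15 min at 37 °C with 8-point 1:3 compound curves (top 50 μM, 0.5% DMSO). Lysates assayed for Akt S473 phosphorylation by luminescent sandwich ELISA; EC50 from 4-parameter variable-slope non-linear regression.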

T1 sequence (P42336 whole entry): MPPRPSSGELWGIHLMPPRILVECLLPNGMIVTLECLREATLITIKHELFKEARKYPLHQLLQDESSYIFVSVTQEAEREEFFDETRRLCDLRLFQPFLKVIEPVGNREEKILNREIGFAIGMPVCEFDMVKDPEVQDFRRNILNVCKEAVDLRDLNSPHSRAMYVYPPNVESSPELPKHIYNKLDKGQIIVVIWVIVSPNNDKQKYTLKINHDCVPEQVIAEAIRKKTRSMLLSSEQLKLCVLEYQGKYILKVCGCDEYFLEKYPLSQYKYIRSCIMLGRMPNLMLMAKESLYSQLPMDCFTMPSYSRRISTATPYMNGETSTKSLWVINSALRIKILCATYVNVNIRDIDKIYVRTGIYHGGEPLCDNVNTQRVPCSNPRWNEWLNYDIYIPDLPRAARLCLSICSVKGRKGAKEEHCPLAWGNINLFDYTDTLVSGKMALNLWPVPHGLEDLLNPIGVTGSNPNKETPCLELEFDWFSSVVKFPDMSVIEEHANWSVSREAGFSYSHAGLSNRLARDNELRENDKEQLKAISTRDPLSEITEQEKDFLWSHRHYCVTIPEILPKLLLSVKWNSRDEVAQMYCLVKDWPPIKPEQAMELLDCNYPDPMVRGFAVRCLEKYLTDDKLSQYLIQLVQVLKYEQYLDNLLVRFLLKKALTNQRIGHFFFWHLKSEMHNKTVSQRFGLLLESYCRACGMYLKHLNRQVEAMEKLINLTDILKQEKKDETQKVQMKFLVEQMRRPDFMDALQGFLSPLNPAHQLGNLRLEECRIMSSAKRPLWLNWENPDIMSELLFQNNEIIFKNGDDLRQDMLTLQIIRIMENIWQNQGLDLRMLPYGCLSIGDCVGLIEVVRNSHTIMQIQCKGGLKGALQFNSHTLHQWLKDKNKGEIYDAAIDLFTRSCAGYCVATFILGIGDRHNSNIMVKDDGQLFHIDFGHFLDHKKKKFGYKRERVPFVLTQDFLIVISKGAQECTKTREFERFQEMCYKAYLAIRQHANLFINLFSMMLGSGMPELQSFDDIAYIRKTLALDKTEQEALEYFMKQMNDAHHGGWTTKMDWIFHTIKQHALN
T1 sequence (P27986 whole entry partner): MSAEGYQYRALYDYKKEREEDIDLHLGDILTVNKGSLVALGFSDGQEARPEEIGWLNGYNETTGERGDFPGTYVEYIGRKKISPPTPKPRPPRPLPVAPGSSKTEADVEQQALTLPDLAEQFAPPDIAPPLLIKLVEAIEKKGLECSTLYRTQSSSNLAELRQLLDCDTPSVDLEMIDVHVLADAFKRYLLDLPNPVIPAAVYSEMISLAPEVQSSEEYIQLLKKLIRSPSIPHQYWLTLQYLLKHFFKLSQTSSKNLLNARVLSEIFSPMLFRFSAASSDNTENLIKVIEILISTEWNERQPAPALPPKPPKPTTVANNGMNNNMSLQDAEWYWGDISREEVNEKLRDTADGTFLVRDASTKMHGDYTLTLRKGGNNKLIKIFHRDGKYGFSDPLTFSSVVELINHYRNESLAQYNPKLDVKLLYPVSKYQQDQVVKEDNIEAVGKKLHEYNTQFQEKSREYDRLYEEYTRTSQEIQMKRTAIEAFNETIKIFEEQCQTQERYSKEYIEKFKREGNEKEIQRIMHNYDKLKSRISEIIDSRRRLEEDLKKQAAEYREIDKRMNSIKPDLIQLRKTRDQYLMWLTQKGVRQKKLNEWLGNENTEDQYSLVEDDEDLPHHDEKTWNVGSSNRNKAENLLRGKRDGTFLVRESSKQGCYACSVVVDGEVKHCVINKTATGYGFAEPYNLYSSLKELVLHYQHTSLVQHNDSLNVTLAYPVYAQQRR

For `CCN1CCN(c2ccc(Nc3cc(Nc4cccc5c4N(C(C)=O)CC5)ccn3)cc2)CC1` [Example 1938], the “binding of PI3Kα to lipid membranes, maximum level” value (PI3Kα [1]) was “about half of that induced by pY”, the EC50 ([2]; Mus musculus, Fibroblast, 0.25 h, read-out: EC50 for induction of pAKT, MEFs, 15 min treatment) was 2 to 4 µM and the “pAKT^S473 in PI3Kα-null MEFs” value ([2]; PI3Kα-null MEFs, 15 min) was “no pAKT^S473 phosphorylation was observed”. The EC50 (PI3Kα [3]; EC50 for induction of pAKT, 15 min treatment) was 2 to 4 µM and the Emax (PI3Kα [3]; read-out: AKT phosphorylation, % of Emax of 1 μM insulin, doses of 5-10 μM 1938) was ~200%.
